In patent US20020137929A1, “1 - (3-heterocyclylphenyl) isothiourea, -isourea, -guanidine and -amidine herbicidal agents” (Intellectual Property Department, BASF Aktiengesellschaft, priority 1998, published 2002):

Legend:
CYPSE (Flatsedge) [1] = assay: Preemergence weed control under flooded paddy conditions; format: in vivo, Cyperus serotinus; settings: rated 3-4 weeks after treatment
How it was run: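 Seeds or propagules sown in silt loam kept flooded 1.5-3 cm; compounds in 50/50 acetone/water pipetted into flood water at about 0.0313 to 0.500 kg/ha. Greenhouse; visual 0-9 rating versus untreated control 3-4 weeks after treatment.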

ZEAMX (Corn, Field) = assay: Postemergence herbicidal evaluation; format: in vivo, Zea mays
How it was run: (§1)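 Young plants, roughly two weeks from seeding, receive the active ingredient as a sprayed dispersion (acetone/water 50/50, 0.5% TWEEN 20) at 40 psi. Doses span about 0.0156 to 0.500 kg/ha. A visual score from 0 to 9 compares treated with control plants four to five weeks on.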

[2] = test system: CHEAL (Lambsquarters, Common); assay: Preemergence herbicidal evaluation; format: in vivo, Chenopodium album; settings: rated 4-5 weeks after treatment
How it was run: (§2)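 Steps: mix seeds into potting soil; plant atop ~1 inch soil; spray compound in aqueous acetone (~0.0156-0.500 kg/ha equivalent); maintain in greenhouse with watering; rate visually 0-9 versus control at 4-5 weeks.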

CASOB (Sicklepod) = assay: Preemergence herbicidal evaluation; format: in vivo, Cassia obtusifolia; settings: rated 4-5 weeks after treatment
How it was run: as §2

AMBEL (Ragweed, Common) [3] = assay: Preemergence herbicidal evaluation; format: in vivo, Ambrosia artemisifolia; settings: rated 4-5 weeks after treatment
How it was run: as §2

GALAP (Galium) = assay: Preemergence herbicidal evaluation; format: in vivo, Galium aparine; settings: rated 4-5 weeks after treatment
How it was run: as §2

ORYSAT (Rice, Tebonnet) = assay: Postemergence herbicidal evaluation; format: in vivo, Oryza sativa, (L.) Tebonnet
How it was run: as §1

CYPIR (Rice Flatsedge) = assay: Postemergence weed control under flooded paddy conditions; format: in vivo, Cyperus iria; settings: postemergence weeds, 3-4 weeks after treatment
How it was run: (§3)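 Flood-water application, about 0.0313–0.500 kg/ha a.i. in aqueous/acetone 50/50 v/v; water depth 1.5–3 cm throughout. Weeds 3–5 cm, rice 1.5–2.5 leaf. Greenhouse; 0–9 visual rating vs control at 3–4 wk.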

CYPSE (Flatsedge) [4] = assay: as above; format: in vivo, Cyperus serotinus; settings: postemergence weeds, 3-4 weeks after treatment
How it was run: as §3

[5] = test system: CHEAL (Lambsquarters, Common); assay: Postemergence herbicidal evaluation; format: in vivo, Chenopodium album
How it was run: as §1

[6] = test system: GLXMAW (Soybean, Williams); assay: Postemergence herbicidal evaluation; format: in vivo, Glycine max, (L.) Merr. cv Williams
How it was run: as §1

AMBEL (Ragweed, Common) [7] = assay: Postemergence herbicidal evaluation; format: in vivo, Ambrosia artemisifolia
How it was run: as §1

ABUTH (Velvetleaf) = assay: Postemergence herbicidal evaluation; format: in vivo, Abutilon theophrasti
How it was run: as §1

ECHCG (Barnyardgrass) = assay: Postemergence herbicidal evaluation; format: in vivo, Echinochloa crus-galli
How it was run: as §1

Structure (SMILES): CCOC(=O)CCN1C(=O)CSC1=Nc1cc(-n2c(=O)cc(C(F)(F)F)n(C)c2=O)c(Cl)cc1Cl [Compound 32, Ethyl 2-{{2,4-dichloro-5-[3,6-dihydro-3-methyl-2,6-dioxo-4-(trifluoromethyl)-1(2H)-pyrimidinyl]-phenyl}imino}-4-oxo-3-thiazolidinepropionate]
- Herbicidal rating CYPSE (CYPSE (Flatsedge) [1]; 0.1250 kg/ha): 0.0
- Herbicidal rating CYPSE (CYPSE (Flatsedge) [1]; 0.2500 kg/ha): 0.0
- Postemergence herbicidal rating ZEAMX (ZEAMX (Corn, Field); Rate 0.0158 kg/ha): 4.0
- Postemergence herbicidal rating ZEAMX (ZEAMX (Corn, Field); Rate 0.0313 kg/ha): 6.0
- Postemergence herbicidal rating ZEAMX (ZEAMX (Corn, Field); Rate 0.0625 kg/ha): 7.0
- Postemergence herbicidal rating ZEAMX (ZEAMX (Corn, Field); Rate 0.1250 kg/ha): 7.0
- Preemergence herbicidal rating CHEAL ([2]; rate 0.0156 kg/ha): 4.5
- Preemergence herbicidal rating CHEAL ([2]; rate 0.0313 kg/ha): 4.5
- Preemergence herbicidal rating CHEAL ([2]; rate 0.0625 kg/ha): 9.0
- Preemergence herbicidal rating CHEAL ([2]; rate 0.1250 kg/ha): 9.0
- Preemergence herbicidal rating CHEAL ([2]; rate 0.2500 kg/ha): 9.0
- Preemergence herbicidal rating CHEAL ([2]; rate 0.5000 kg/ha): 9.0
- Preemergence herbicidal rating CASOB (CASOB (Sicklepod); rate 0.0156 kg/ha): 0.5
- Preemergence herbicidal rating CASOB (CASOB (Sicklepod); rate 0.0313 kg/ha): 0.0
- Preemergence herbicidal rating CASOB (CASOB (Sicklepod); rate 0.0625 kg/ha): 0.0
- Preemergence herbicidal rating CASOB (CASOB (Sicklepod); rate 0.1250 kg/ha): 0.0
- Preemergence herbicidal rating CASOB (CASOB (Sicklepod); rate 0.2500 kg/ha): 0.0
- Preemergence herbicidal rating CASOB (CASOB (Sicklepod); rate 0.5000 kg/ha): 0.0
- Preemergence herbicidal rating AMBEL (AMBEL (Ragweed, Common) [3]; rate 0.0156 kg/ha): 0.0
- Preemergence herbicidal rating AMBEL (AMBEL (Ragweed, Common) [3]; rate 0.0313 kg/ha): 0.5
- Preemergence herbicidal rating AMBEL (AMBEL (Ragweed, Common) [3]; rate 0.0625 kg/ha): 0.5
- Preemergence herbicidal rating AMBEL (AMBEL (Ragweed, Common) [3]; rate 0.1250 kg/ha): 0.5
- Preemergence herbicidal rating AMBEL (AMBEL (Ragweed, Common) [3]; rate 0.2500 kg/ha): 5.5
- Preemergence herbicidal rating AMBEL (AMBEL (Ragweed, Common) [3]; rate 0.5000 kg/ha): 9.0
- Preemergence herbicidal rating GALAP (GALAP (Galium); rate 0.0156 kg/ha): 0.0
- Preemergence herbicidal rating GALAP (GALAP (Galium); rate 0.0313 kg/ha): 0.0
- Preemergence herbicidal rating GALAP (GALAP (Galium); rate 0.0625 kg/ha): 0.0
- Preemergence herbicidal rating GALAP (GALAP (Galium); rate 0.1250 kg/ha): 0.5
- Preemergence herbicidal rating GALAP (GALAP (Galium); rate 0.2500 kg/ha): 3.5
- Preemergence herbicidal rating GALAP (GALAP (Galium); rate 0.5000 kg/ha): 7.0
- Postemergence herbicidal rating ORYSAT (ORYSAT (Rice, Tebonnet); Rate 0.0158 kg/ha): 1.0
- Postemergence herbicidal rating ORYSAT (ORYSAT (Rice, Tebonnet); Rate 0.0313 kg/ha): 2.0
- Postemergence herbicidal rating ORYSAT (ORYSAT (Rice, Tebonnet); Rate 0.0625 kg/ha): 3.0
- Postemergence herbicidal rating ORYSAT (ORYSAT (Rice, Tebonnet); Rate 0.1250 kg/ha): 3.5
- Herbicidal rating CYPIR (CYPIR (Rice Flatsedge); rate 0.1250 kg/ha): 0.0
- Herbicidal rating CYPIR (CYPIR (Rice Flatsedge); rate 0.2500 kg/ha): 0.0
- Herbicidal rating CYPSE (CYPSE (Flatsedge) [4]; rate 0.1250 kg/ha): 0.0
- Herbicidal rating CYPSE (CYPSE (Flatsedge) [4]; rate 0.2500 kg/ha): 0.0
- Postemergence herbicidal rating CHEAL ([5]; Rate 0.0158 kg/ha): 3.0
- Postemergence herbicidal rating CHEAL ([5]; Rate 0.0313 kg/ha): 0.0
- Postemergence herbicidal rating CHEAL ([5]; Rate 0.0625 kg/ha): 2.0
- Postemergence herbicidal rating CHEAL ([5]; Rate 0.1250 kg/ha): 6.0
- Postemergence herbicidal rating GLXMAW ([6]; Rate 0.0158 kg/ha): 3.5
- Postemergence herbicidal rating GLXMAW ([6]; Rate 0.0313 kg/ha): 5.5
- Postemergence herbicidal rating GLXMAW ([6]; Rate 0.0625 kg/ha): 6.0
- Postemergence herbicidal rating GLXMAW ([6]; Rate 0.1250 kg/ha): 6.0
- Postemergence herbicidal rating AMBEL (AMBEL (Ragweed, Common) [7]; Rate 0.0158 kg/ha): 3.0
- Postemergence herbicidal rating AMBEL (AMBEL (Ragweed, Common) [7]; Rate 0.0313 kg/ha): 0.0
- Postemergence herbicidal rating AMBEL (AMBEL (Ragweed, Common) [7]; Rate 0.0625 kg/ha): 3.0
- Postemergence herbicidal rating AMBEL (AMBEL (Ragweed, Common) [7]; Rate 0.1250 kg/ha): 9.0
- Postemergence herbicidal rating ABUTH (ABUTH (Velvetleaf); Rate 0.0158 kg/ha): 5.0
- Postemergence herbicidal rating ABUTH (ABUTH (Velvetleaf); Rate 0.0313 kg/ha): 9.0
- Postemergence herbicidal rating ABUTH (ABUTH (Velvetleaf); Rate 0.0625 kg/ha): 9.0
- Postemergence herbicidal rating ABUTH (ABUTH (Velvetleaf); Rate 0.1250 kg/ha): 9.0
- Postemergence herbicidal rating ECHCG (ECHCG (Barnyardgrass); Rate 0.0158 kg/ha): 0.0
- Postemergence herbicidal rating ECHCG (ECHCG (Barnyardgrass); Rate 0.0313 kg/ha): 0.0
- Postemergence herbicidal rating ECHCG (ECHCG (Barnyardgrass); Rate 0.0625 kg/ha): 0.0
- Postemergence herbicidal rating ECHCG (ECHCG (Barnyardgrass); Rate 0.1250 kg/ha): 2.0
